For one assay, the target named is human Cav2.2 (Homo sapiens, UniProt Q00975). The assay is described as follows: Assessment of calcium channel activity using FLIPR (Ca2+ influx in IMR32 cells). The format is cell-based. The note with it: IMR32 cells endogenously expressing human Cav2.2; 60 minute pre-incubation; 2 μM nifedipine; depolarized with 80 mM KCl, 5 mM CaCl2. Put shortly: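 IMR32 cells were dye-loaded and pre-incubated 60 min with compound (10 μM to 0.1 nM) in 1.3 mM CaCl2 plus 2 μM nifedipine to block L-type channels. Cells were then depolarized with 80 mM KCl while Ca2+ was raised to 5 mM, and FLIPR read the influx. IC50 came from a sigmoidal fit of % inhibition versus the no-inhibitor control.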
Sequence of human Cav2.2 (Q00975 whole entry): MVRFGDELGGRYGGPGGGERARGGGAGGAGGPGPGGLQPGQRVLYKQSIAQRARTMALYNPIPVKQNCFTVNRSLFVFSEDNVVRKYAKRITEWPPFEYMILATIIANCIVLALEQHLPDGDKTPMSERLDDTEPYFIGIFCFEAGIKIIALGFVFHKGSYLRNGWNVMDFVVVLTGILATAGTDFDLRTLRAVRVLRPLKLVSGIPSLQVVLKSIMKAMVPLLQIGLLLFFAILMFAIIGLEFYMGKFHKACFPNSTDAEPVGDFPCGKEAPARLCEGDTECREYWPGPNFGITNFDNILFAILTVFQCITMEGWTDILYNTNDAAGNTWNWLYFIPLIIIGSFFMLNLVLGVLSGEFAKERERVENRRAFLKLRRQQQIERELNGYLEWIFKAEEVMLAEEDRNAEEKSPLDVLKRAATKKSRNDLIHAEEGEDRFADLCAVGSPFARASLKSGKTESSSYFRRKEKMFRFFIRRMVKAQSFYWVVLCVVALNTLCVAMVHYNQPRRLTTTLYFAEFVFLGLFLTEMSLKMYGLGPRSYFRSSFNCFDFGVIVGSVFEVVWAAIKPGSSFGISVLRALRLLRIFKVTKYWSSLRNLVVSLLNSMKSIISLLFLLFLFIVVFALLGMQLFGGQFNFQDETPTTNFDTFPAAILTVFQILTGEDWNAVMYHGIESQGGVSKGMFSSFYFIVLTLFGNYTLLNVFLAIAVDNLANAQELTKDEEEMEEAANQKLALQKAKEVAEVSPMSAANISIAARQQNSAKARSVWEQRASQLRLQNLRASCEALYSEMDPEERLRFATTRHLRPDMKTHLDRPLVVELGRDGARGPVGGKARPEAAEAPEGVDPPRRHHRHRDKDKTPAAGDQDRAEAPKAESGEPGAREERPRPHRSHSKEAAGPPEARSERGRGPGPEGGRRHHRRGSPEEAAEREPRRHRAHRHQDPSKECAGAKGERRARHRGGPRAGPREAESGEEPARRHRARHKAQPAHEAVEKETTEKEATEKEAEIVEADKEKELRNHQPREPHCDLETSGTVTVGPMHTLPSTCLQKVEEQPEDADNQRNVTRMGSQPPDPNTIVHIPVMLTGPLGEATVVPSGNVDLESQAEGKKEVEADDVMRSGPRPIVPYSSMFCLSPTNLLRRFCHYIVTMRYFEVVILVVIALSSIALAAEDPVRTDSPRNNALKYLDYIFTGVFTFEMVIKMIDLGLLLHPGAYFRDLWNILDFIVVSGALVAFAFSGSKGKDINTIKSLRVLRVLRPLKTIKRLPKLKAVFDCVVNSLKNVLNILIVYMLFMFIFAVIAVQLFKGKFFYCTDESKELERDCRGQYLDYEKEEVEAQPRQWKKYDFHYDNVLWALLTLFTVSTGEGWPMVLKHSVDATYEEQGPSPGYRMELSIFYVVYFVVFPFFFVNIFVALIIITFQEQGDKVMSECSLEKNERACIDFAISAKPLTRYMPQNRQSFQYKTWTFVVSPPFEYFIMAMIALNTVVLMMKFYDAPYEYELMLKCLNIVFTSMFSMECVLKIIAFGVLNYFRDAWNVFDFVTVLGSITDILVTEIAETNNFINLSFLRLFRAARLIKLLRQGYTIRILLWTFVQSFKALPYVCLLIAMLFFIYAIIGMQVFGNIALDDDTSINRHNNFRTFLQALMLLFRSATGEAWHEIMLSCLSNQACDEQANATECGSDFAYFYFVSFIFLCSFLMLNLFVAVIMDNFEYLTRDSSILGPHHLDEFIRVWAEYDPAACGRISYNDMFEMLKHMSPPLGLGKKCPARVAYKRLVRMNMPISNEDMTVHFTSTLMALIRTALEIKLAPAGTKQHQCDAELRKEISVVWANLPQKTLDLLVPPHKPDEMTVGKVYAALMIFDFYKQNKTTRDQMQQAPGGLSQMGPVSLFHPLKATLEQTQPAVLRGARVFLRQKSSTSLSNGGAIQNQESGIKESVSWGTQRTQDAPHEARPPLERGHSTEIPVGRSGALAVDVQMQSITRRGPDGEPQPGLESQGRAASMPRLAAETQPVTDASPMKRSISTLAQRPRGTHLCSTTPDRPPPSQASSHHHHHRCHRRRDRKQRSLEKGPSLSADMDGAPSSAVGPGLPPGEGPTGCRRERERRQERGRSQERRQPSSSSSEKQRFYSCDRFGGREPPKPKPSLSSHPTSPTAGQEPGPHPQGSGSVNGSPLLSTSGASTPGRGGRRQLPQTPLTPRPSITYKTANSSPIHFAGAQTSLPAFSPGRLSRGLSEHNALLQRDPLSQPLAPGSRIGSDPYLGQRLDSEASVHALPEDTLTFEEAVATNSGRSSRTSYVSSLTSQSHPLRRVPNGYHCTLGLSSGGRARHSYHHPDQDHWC
Sequence of human Cav2.2 (P54289 25-951 partner limits assumed): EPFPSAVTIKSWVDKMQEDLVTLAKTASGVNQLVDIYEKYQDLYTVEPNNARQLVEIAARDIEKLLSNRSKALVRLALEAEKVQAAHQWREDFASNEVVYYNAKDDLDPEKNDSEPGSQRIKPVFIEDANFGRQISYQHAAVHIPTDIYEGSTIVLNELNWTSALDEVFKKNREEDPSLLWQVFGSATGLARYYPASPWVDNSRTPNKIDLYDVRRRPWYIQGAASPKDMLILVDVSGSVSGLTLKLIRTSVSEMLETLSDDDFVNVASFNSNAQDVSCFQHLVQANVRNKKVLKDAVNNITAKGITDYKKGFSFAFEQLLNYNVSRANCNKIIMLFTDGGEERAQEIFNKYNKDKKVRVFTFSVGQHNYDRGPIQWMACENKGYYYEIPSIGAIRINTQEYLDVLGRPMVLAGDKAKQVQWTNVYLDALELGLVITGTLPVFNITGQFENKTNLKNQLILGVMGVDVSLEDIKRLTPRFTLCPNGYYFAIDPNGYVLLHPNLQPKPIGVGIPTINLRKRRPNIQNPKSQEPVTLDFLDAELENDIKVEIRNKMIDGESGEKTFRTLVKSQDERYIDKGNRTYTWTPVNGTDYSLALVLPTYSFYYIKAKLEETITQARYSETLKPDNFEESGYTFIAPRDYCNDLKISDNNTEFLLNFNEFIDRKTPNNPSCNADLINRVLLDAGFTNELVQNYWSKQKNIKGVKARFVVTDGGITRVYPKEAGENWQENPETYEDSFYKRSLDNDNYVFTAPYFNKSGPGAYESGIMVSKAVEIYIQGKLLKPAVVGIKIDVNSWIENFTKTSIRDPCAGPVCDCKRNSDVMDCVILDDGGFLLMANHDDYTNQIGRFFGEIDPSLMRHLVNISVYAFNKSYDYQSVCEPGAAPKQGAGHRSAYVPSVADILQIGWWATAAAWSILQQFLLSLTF
Sequence of human Cav2.2 (P54289 952-1103 partner limits assumed): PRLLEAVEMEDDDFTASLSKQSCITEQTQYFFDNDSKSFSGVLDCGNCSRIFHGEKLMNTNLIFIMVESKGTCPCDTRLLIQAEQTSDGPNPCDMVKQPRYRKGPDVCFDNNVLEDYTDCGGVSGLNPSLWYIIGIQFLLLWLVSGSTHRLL
Sequence of human Cav2.2 (P54284 whole entry partner): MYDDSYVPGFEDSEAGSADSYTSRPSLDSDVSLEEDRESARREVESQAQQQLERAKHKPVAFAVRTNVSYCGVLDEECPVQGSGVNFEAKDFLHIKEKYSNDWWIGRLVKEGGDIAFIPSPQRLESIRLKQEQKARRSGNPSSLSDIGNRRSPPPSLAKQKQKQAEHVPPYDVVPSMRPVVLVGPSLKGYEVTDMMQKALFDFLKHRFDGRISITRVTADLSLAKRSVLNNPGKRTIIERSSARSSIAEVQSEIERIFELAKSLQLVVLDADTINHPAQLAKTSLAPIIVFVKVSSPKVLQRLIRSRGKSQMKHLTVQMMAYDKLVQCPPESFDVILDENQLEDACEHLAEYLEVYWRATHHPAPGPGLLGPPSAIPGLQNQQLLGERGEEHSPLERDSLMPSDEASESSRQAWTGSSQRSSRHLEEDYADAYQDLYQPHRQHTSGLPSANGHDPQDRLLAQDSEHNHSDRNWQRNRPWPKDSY

Another assay deals with Sprague Dawley rats. Description: Capsaicin induced secondary mechanical hyperalgesia model. The note with it: Rattus norvegicus, po, 1 h; 30 mg/kg p.o., 60 minutes before testing; secondary mechanical hyperalgesia 180 minutes after capsaicin; von Frey paw withdrawal threshold. In kind it is in vivo. Here is the method:
(ii) In Vivo Data—Capsaicin Induced Secondary Mechanical Hyperalgesia Model:
Sprague Dawley rats were briefly restrained, and capsaicin was administered at 10 μg in 10 μL of vehicle by intraplantar injection into the center of the right hind paw. Secondary mechanical hyperalgesia (SMH) was measured at the heel away from the site of injection 180 minutes following capsaicin exposure. Compounds and gabapentin (positive control), were administered p.o. 60 minutes before testing (2 hours after capsaicin) or i.p. 30 minutes before testing (2.5 hours after capsaicin). SMH was measured using calibrated von Frey filaments (Stoelting, Woodale, Ill.). Following the 1 hour habituation in the testing room, rats were moved to individual plexiglass chambers that sit on top of a wire mesh to allow for access for stimulation of the plantar surface of the hind paws. Rats were allowed to acclimate to the new chambers for 15 minutes before the onset of testing. The paw withdrawal threshold was determined by increasing and decreasing stimulus intensity (force: g) and calculated using Dixon's up-down method (Chaplan, S. R.; Bach, F. W.; Pogrel, J. W.; Chung, J. M.; Yaksh, T. L.; Quantitative assessment of tactile allodynia in the rat paw. J. Neuroscience Methods 1994, 53(1), 55-63). The filaments (maximum force of 15.0 g) were held in place for 8 seconds or until there was a withdrawal response from the mechanical stimulation.

This note sets out measurements from patent publication US8044069B2, “Compounds as calcium channel blockers” (Abbott Laboratories, priority 2008, dated 2011).

Usually IC50 stands for the midpoint of a concentration-inhibition curve. As a reminder, the inhibition in vivo is the drop in the measured response relative to a control, in per cent. Low readings indicate little suppression, high ones strong suppression.

Take `O=C(CN1CCC(c2ccc(F)cc2)C1=O)N1Cc2ccc(C(F)(F)F)cc2C1` (single isomer, unassigned; (+)) [Example 264, (+)-3-(4-fluorophenyl)-1-{2-oxo-2-[5-(trifluoromethyl)-1,3-dihydro-2H-isoindol-2-yl]ethyl}pyrrolidin-2-one]: the IC50 on human Cav2.2 was 14100 nM. Also, in the assay on Sprague Dawley rats, the inhibition in vivo at 30 mg/kg amounted to 49%.
`O=C(CN1CCCC(c2ccccc2)(c2ccccc2)C1=O)N1CCN(Cc2cccc(C(F)(F)F)c2)CC1` [Example 79, 1-(2-oxo-2-{4-[3-(trifluoromethyl)benzyl]piperazin-1-yl}ethyl)-3,3-diphenylpiperidin-2-one]: at human Cav2.2, the IC50 was found to be 930 nM. The molecule also showed an inhibition in vivo at 30 mg/kg in the assay on Sprague Dawley rats of 49%.
Turning to `O=C(CN1CCCC(c2ccccc2)C1=O)N1CCN(C(c2ccccc2)c2ccccc2)CC1` (stereo not drawn) [Example 91, 1-[2-(4-benzhydrylpiperazin-1-yl)-2-oxoethyl]-3-phenylpiperidin-2-one], the IC50 at human Cav2.2 is 2180 nM. Also, the inhibition in vivo at 30 mg/kg in the assay with Sprague Dawley rats stood at 58%.
The like results for `O=C(CN1CCCC(c2ccccc2)(c2ccccc2)C1=O)N1CCN(C(c2ccccc2)c2ccccc2)CC1` [Example 68, 1-[2-(4-benzhydrylpiperazin-1-yl)-2-oxoethyl]-3,3-diphenylpiperidin-2-one] were, in that order, 1380 nM and 71%.
As to `O=C(CN1CCC(c2ccc(F)cc2)(c2ccc(F)cc2)C1=O)N1CCN(C(c2ccccc2)c2ccccc2)CC1` [Example 58, 1-[2-(4-benzhydrylpiperazin-1-yl)-2-oxoethyl]-3,3-bis(4-fluorophenyl)pyrrolidin-2-one], on human Cav2.2, the half-inhibitory concentration (IC50) was 830 nM. The same molecule displayed an inhibition in vivo at 30 mg/kg in the assay with Sprague Dawley rats of 97%.
The like results for `O=C(CN1CCC(c2ccccc2)(c2ccccc2)C1=O)N1CCN(C(c2ccccc2)c2ccccc2)CC1` [Example 1, 1-[2-(4-benzhydrylpiperazin-1-yl)-2-oxoethyl]-3,3-diphenylpyrrolidin-2-one] were, in that order, 1100 nM and 61%.
